By IC50 is commonly meant the concentration that gives 50% inhibition. High values mean a need for much substance, low ones inhibition by little substance.

The record followed here is PMC6414199, “Bim escapes displacement by BH3-mimetic anti-cancer drugs by double-bolt locking both Bcl-XL and Bcl-2” (eLife, 2019).

For the assay, the target named is T1, Bcl-XL (Homo sapiens, UniProt Q07817).
T1 construct: gene BCL2L1; mCerulean3-Bcl-XL fusion expressed in MCF-7 cells
The assay is described as follows: live-cell FLIM-FRET displacement of Venus-Bad from mCer3-Bcl-XL in MCF-7 cells. The format is cell-based.

The structures appear in SMILES notation.

T1 sequence (Q07817 whole entry, the tested form may be a part): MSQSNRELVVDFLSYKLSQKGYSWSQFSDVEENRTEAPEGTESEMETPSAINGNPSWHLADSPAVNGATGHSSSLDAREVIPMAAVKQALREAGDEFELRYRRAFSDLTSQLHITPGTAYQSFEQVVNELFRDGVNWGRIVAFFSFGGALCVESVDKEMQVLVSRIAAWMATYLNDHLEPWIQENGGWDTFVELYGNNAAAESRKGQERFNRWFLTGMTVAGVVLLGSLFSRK

Turning to `CN(C)CC#Cc1ccc(OCCCc2sc(N3CCc4cccc(C(=O)Nc5nc6ccccc6s5)c4C3)nc2C(=O)O)c(F)c1` [A-1155463], the IC50 is less than 1250 nM.
